Measured values published in ChEMBL document CHEMBL1145392, “Natural feruloyl monoglyceride macrocycles as protecting factors against free-radical damage of lipidic membranes” (Bioorg Med Chem Lett, 2007).
Activity calls are given as the source filed them.

Legend:
Format in all cases: functional
[1] = tested on: Liver microsomes; assay: Inhibition of lipid peroxidation activity in Wistar rat liver microsomes by TBRAS assay; conditions: Microsome
[2] = Hydrogen peroxide radical scavenging activity
[3] = Superoxide radical scavenging activity assessed as NBT reduction

Measured: Activity

COc1cc(/C=C\C(=O)OCC2COC(=O)CCCCCCCCCCCCCCCCCCCCCCCCCCCCCCCCCO2)ccc1O (configuration not stated)
active: all assays above

COc1cc(/C=C/C(=O)OCC2COC(=O)CCCCCCCCCCCCCCCCCCCCCCCO2)ccc1O (configuration not stated)
active: all assays above

COc1cc(/C=C/C(=O)OCC2COC(=O)CCCCCCCCCCCCCCCCCCO2)ccc1O (configuration not stated)
active: all assays above

COc1cc(/C=C/C(=O)OCC2COC(=O)CCCCCCCCCCCCCCCCCCCCCCCCCCCCO2)ccc1O (configuration not stated)
active: all assays above

COc1cc(/C=C/C(=O)OCC2COC(=O)CCCCCCCCCCCCCCCCCCCCO2)ccc1O (configuration not stated)
active: all assays above

COc1cc(/C=C\C(=O)OCC2COC(=O)CCCCCCCCCCCCCCCCCCCCCCCCO2)ccc1O (configuration not stated)
active: all assays above

COc1cc(/C=C/C(=O)OCC2COC(=O)CCCCCCCCCCCCCCCCCCCCCCCCCCCCCO2)ccc1O (configuration not stated)
active: all assays above

COc1cc(/C=C/C(=O)OCC2COC(=O)CCCCCCCCCCCCCCCCCCCCCCCCO2)ccc1O (configuration not stated)
active: all assays above

COc1cc(/C=C/C(=O)OCC2COC(=O)CCCCCCCCCCCCCCCCCCCCCCCCCCO2)ccc1O (configuration not stated)
active: all assays above
